Molecules are shown by their SMILES. Bounds are passed on as bounds.

The test system of the test is Utrophin A promoter linked to a luciferase reporter gene (H2K/mdx/Utro A reporter cell line). The test is described as follows: Luciferase reporter assay (murine H2K cells). The class given is cell-based. Conditions: Mus musculus; Table 1; murine H2K mdx myoblasts, compound final concentration 10 μM, 48 hrs; read-out: Activity (luciferase reporter assay, relative to control). The protocol:
1. Luciferase Reporter Assay (Murine H2K Cells)
The cell line used for the screen is an immortalized mdx mouse H2K cell line that has been stably transfected with a plasmid containing ≈5 kb fragment of the Utrophin A promoter including the first untranslated exon linked to a luciferase reporter gene (see FIG. 1).
Under conditions of low temperature and interferon containing media, the cells remain as myoblasts. These are plated into 96 well plates and cultured in the presence of compound for three days. The level of luciferase is then determined by cell lysis and reading of the light output from the expressed luciferase gene utilising a plate luminometer.
The H2K/mdx/Utro A reporter cell line was passaged twice a week until ≦30% confluent. The cells were grown at 33° C. in the presence of 10% CO2
The H2K/mdx/Utro A reporter cell line cells were plated out into 96 well plates (Falcon 353296, white opaque) at a density of approximately 5000 cells/well in 190 μl normal growth medium. The plates were then incubated at 33° C. in the presence of 10% CO2 for 24 hrs.
Compounds were dosed by adding 10 μl of diluted compound to each well giving a final concentration of 10 μM. The plates were then incubated for a further 48 hrs
Cells were then lysed in situ following the manufacture's protocols (Promega Steady-Glo Luciferase Assay System (E2520). Then counted for 10 seconds using a plate luminometer (Victorl420).
In general terms: Reporter assays use an easily measured gene product as a stand-in for the process of interest.
As to `Cc1cc2nn(-c3ccc(Cl)cc3)nc2cc1NC(=O)c1cccnc1` [Example 1, N-(2-(4-chlorophenyl)-6-methyl-2H-benzo[d][1,2,3]triazol-5-yl)nicotinamide], the activity at 10 µM was in the range of 301 to 400%.

On to `Cc1cc2nn(-c3ccc(Cl)cc3)nc2cc1NC(=O)c1ccncc1` [Example 2, N-(2-(4-chlorophenyl)-6-methyl-2H-benzo[d][1,2,3]triazol-5-yl)isonicotinamide], for which the activity at 10 µM lay within 201 to 300%.

In the case of `Cc1cc2nn(-c3ccc(Cl)cc3)nc2cc1NC(=O)c1ccccc1` [Example 3, N-(2-(4-chlorophenyl)-6-methyl-2H-benzo[d][1,2,3]triazol-5-yl)benzamide], the activity at 10 µM was under 200%.

For `COc1ccc(C(=O)Nc2cc3nn(-c4ccc(Cl)cc4)nc3cc2C)cc1` [Example 4, N-(2-(4-chlorophenyl)-6-methyl-2H-benzo[d][1,2,3]triazol-5-yl)-4-methoxybenzamide], the activity at 10 µM was in the range of 201 to 300%.

As for `COc1ccccc1C(=O)Nc1cc2nn(-c3ccc(Cl)cc3)nc2cc1C` [Example 5, N-(2-(4-chlorophenyl)-6-methyl-2H-benzo[d][1,2,3]triazol-5-yl)-2-methoxybenzamide], the activity at 10 µM was under 200%.

On to `Cc1cc2nn(-c3ccc(Cl)cc3)nc2cc1NC(=O)c1cccs1` [Example 6, N-(2-(4-chlorophenyl)-6-methyl-2H-benzo[d][1,2,3]triazol-5-yl)thiophene-2-carboxamide], for which the activity at 10 µM was in the range of 301 to 400%.

Regarding `CCC(=O)Nc1cc2nn(-c3ccc(Cl)cc3)nc2cc1C` [Example 7, N-(2-(4-chlorophenyl)-6-methyl-2H-benzo[d][1,2,3]triazol-5-yl)propionamide], the activity at 10 µM was under 200%.

Take `CCCC(=O)Nc1cc2nn(-c3ccc(Cl)cc3)nc2cc1C` [Example 8, N-(2-(4-chlorophenyl)-6-methyl-2H-benzo[d][1,2,3]triazol-5-yl)butyramide]: the activity at 10 µM was 201 to 300%.

Take `CCCCC(=O)Nc1cc2nn(-c3ccc(Cl)cc3)nc2cc1C` [Example 9, N-(2-(4-chlorophenyl)-6-methyl-2H-benzo[d][1,2,3]triazol-5-yl)pentanamide]: the activity at 10 µM fell in the range of 201 to 300%.

With `Cc1cc2nn(-c3ccc(Cl)cc3)nc2cc1NC(=O)C(C)C` [Example 10, N-(2-(4-chlorophenyl)-6-methyl-2H-benzo[d][1,2,3]triazol-5-yl)isobutyramide], the activity at 10 µM is 201 to 300%.

Consider `Cc1cc2nn(-c3ccc(Cl)cc3)nc2cc1NC(=O)c1ccco1` [Example 11, N-(2-(4-chlorophenyl)-6-methyl-2H-benzo[d][1,2,3]triazol-5-yl)furan-2-carboxamide], for which the activity at 10 µM fell in the range of 201 to 300%.

Consider `CCN(CC)c1ccc(-n2nc3cc(C)c(NC(=O)c4cccnc4)cc3n2)cc1` [Example 12, N-(2-(4-(diethylamino)phenyl)-6-methyl-2H-benzo[d][1,2,3]triazol-5-yl)nicotinamide], for which the activity at 10 µM fell in the range of 301 to 400%.

Regarding `CCN(CC)c1ccc(-n2nc3cc(C)c(NC(=O)c4ccncc4)cc3n2)cc1` [Example 13, N-(2-(4-(diethylamino)phenyl)-6-methyl-2H-benzo[d][1,2,3]triazol-5-yl)isonicotinamide], the activity at 10 µM was 301 to 400%.

Take `CCC(=O)Nc1cc2nn(-c3ccc(N(CC)CC)cc3)nc2cc1C` [Example 14, N-(2-(4-(diethylamino)phenyl)-6-methyl-2H-benzo[d][1,2,3]triazol-5-yl)propionamide]: the activity at 10 µM is under 200%.

With `CCCC(=O)Nc1cc2nn(-c3ccc(N(CC)CC)cc3)nc2cc1C` [Example 15, N-(2-(4-(diethylamino)phenyl)-6-methyl-2H-benzo[d][1,2,3]triazol-5-yl)butyramide], the activity at 10 µM is under 200%.

Consider `CCCCC(=O)Nc1cc2nn(-c3ccc(N(CC)CC)cc3)nc2cc1C` [Example 16, N-(2-(4-(diethylamino)phenyl)-6-methyl-2H-benzo[d][1,2,3]triazol-5-yl)pentanamide], for which the activity at 10 µM is under 200%.

`CCN(CC)c1ccc(-n2nc3cc(C)c(NC(=O)C(C)C)cc3n2)cc1` [Example 17, N-(2-(4-(diethylamino)phenyl)-6-methyl-2H-benzo[d][1,2,3]triazol-5-yl)isobutyramide]: the activity at 10 µM is under 200%.

Consider `CCN(CC)c1ccc(-n2nc3cc(C)c(NC(=O)c4ccco4)cc3n2)cc1` [Example 18, N-(2-(4-(diethylamino)phenyl)-6-methyl-2H-benzo[d][1,2,3]triazol-5-yl)furan-2-carboxamide], for which the activity at 10 µM was under 200%.

With `CCN(CC)c1ccc(-n2nc3ccc(N)cc3n2)cc1` [Example 19, 2-(4-(diethylamino)phenyl)-2H-benzo[d][1,2,3]triazol-5-amine], the activity at 10 µM lay within 301 to 400%.

As for `CCN(CC)c1ccc(-n2nc3ccc(NC(=O)c4cccnc4)cc3n2)cc1` [Example 20, N-(2-(4-(diethylamino)phenyl)-2H-benzo[d][1,2,3]triazol-5-yl)nicotinamide], the activity at 10 µM lay within 201 to 300%.

With `CCN(CC)c1ccc(-n2nc3ccc(NC(=O)c4ccncc4)cc3n2)cc1` [Example 21, N-(2-(4-(diethylamino)phenyl)-2H-benzo[d][1,2,3]triazol-5-yl)isonicotinamide], the activity at 10 µM was under 200%.

Take `CCN(CC)c1ccc(-n2nc3ccc(NC(C)=O)cc3n2)cc1` [Example 22, N-(2-(4-(diethylamino)phenyl)-2H-benzo[d][1,2,3]triazol-5-yl)acetamide]: the activity at 10 µM is 201 to 300%.

For the compound `CCC(=O)Nc1ccc2nn(-c3ccc(N(CC)CC)cc3)nc2c1` [Example 23, N-(2-(4-(diethylamino)phenyl)-2H-benzo[d][1,2,3]triazol-5-yl)propionamide], the activity at 10 µM was under 200%.

Consider `CCCC(=O)Nc1ccc2nn(-c3ccc(N(CC)CC)cc3)nc2c1` [Example 24, N-(2-(4-(diethylamino)phenyl)-2H-benzo[d][1,2,3]triazol-5-yl)butyramide], for which the activity at 10 µM is under 200%.

Take `CCCCC(=O)Nc1ccc2nn(-c3ccc(N(CC)CC)cc3)nc2c1` [Example 25, N-(2-(4-(diethylamino)phenyl)-2H-benzo[d][1,2,3]triazol-5-yl)pentanamide]: the activity at 10 µM is under 200%.

As for `CCN(CC)c1ccc(-n2nc3ccc(NC(=O)C(C)C)cc3n2)cc1` [Example 26, N-(2-(4-(diethylamino)phenyl)-2H-benzo[d][1,2,3]triazol-5-yl)isobutyramide], the activity at 10 µM is under 200%.

In the case of `CCN(CC)c1ccc(-n2nc3ccc(NC(=O)c4ccco4)cc3n2)cc1` [Example 27, N-(2-(4-(diethylamino)phenyl)-2H-benzo[d][1,2,3]triazol-5-yl)furan-2-carboxamide], the activity at 10 µM was under 200%.

As for `CCN(CC)c1ccc(-n2nc3ccc(NC(=O)c4cccs4)cc3n2)cc1` [Example 28, N-(2-(4-(diethylamino)phenyl)-2H-benzo[d][1,2,3]triazol-5-yl)thiophene-2-carboxamide], the activity at 10 µM was under 200%.

As for `CCN(CC)c1ccc(-n2nc3ccc(NC(=O)c4ccccc4)cc3n2)cc1` [Example 29, N-(2-(4-(diethylamino)phenyl)-2H-benzo[d][1,2,3]triazol-5-yl)benzamide], the activity at 10 µM was under 200%.

Turning to `CCN(CC)c1ccc(-n2nc3ccc(NC(=O)c4ccc(OC)cc4)cc3n2)cc1` [Example 30, N-(2-(4-(diethylamino)phenyl)-2H-benzo[d][1,2,3]triazol-5-yl)-4-methoxybenzamide], the activity at 10 µM is under 200%.

For the compound `CCN(CC)c1ccc(-n2nc3ccc(NC(=O)c4ccccc4OC)cc3n2)cc1` [Example 31, N-(2-(4-(diethylamino)phenyl)-2H-benzo[d][1,2,3]triazol-5-yl)-2-methoxybenzamide], the activity at 10 µM was under 200%.

Regarding `CCN(CC)c1ccc(-n2nc3ccc(NC(=O)c4ccc(Cl)cc4)cc3n2)cc1` [Example 32, 4-chloro-N-(2-(4-(diethylamino)phenyl)-2H-benzo[d][1,2,3]triazol-5-yl)benzamide], the activity at 10 µM is under 200%.

`CCN(CC)c1ccc(-n2nc3ccc(NC(=O)c4ccc(N(C)C)cc4)cc3n2)cc1` [Example 33, N-(2-(4-(diethylamino)phenyl)-2H-benzo[d][1,2,3]triazol-5-yl)-4-(dimethylamino)benzamide]: the activity at 10 µM is under 200%.

In the case of `Cc1cc2nn(-c3ccc(N4CCOCC4)cc3)nc2cc1N` [Example 34, 6-methyl-2-(4-morpholinophenyl)-2H-benzo[d][1,2,3]triazol-5-amine], the activity at 10 µM lay in the range of 201 to 300%.

For `CCC(=O)Nc1ccc2nn(-c3ccc(Cl)cc3)nc2c1` [Example 35, N-(2-(4-chlorophenyl)-2H-benzo[d][1,2,3]triazol-5-yl)propionamide], the activity at 10 µM was over 401%.

Turning to `CCCC(=O)Nc1ccc2nn(-c3ccc(Cl)cc3)nc2c1` [Example 36, N-(2-(4-chlorophenyl)-2H-benzo[d][1,2,3]triazol-5-yl)butyramide], the activity at 10 µM was 301 to 400%.

Turning to `CC(C)C(=O)Nc1ccc2nn(-c3ccc(Cl)cc3)nc2c1` [Example 37, N-(2-(4-chlorophenyl)-2H-benzo[d][1,2,3]triazol-5-yl)isobutyramide], the activity at 10 µM is over 401%.

Consider `Nc1ccc2nn(-c3ccc(Cl)cc3)nc2c1` [Example 38, 2-(4-chlorophenyl)-2H-benzo[d][1,2,3]triazol-5-amine], for which the activity at 10 µM is under 200%.

The record behind these values is patent publication US20100048660A1, “TREATMENT OF DUCHENNE MUSCULAR DYSTROPHY” (priority 2006, published 2010).
